We go through 22 compounds from patent US20110082114A1, “Methods of Treating Aneurysmal Dilatation, Blood Vessel Wall Weakness and Specifically Abdominal Aortic and Thoracic Aneurysm Using Matrix Metalloprotease-2 Inhibitors” (SYMPHONY EVOLUTION, INC., priority 2009, published 2011).

One may read the IC50 as the concentration that inhibits the measured activity by half. Low readings indicate greater potency in that assay, high ones weaker potency in that assay.

A value given as a limit tells only on which side of the number the result lay.

The subject of test [1] is C57/B16 mice, elastase-perfused abdominal aorta. The test is described as follows: Elastase-perfusion mouse model of AAA, aortic diameter. It counts as in vivo. The conditions noted are these: for mean % ΔAD (increase in aortic diameter at 2 weeks): daily gavage in Cremophor, Mean±SE. An excerpt:
All mice used in the experiment were commercially obtained C57/B16 inbred strain mice. Throughout the experimental course, mice were allowed free access to food and water. Animals were housed in a controlled animal facility, and all mouse care and treatment occurred under approved protocols.
A total of 89 C57/B16 mice were subjected to transient perfusion of the abdominal aorta according to a protocol known in the art. Briefly, after sedation and preparation, the aorta was approached through a midline laparotomy. The infrarenal aorta was dissected and the diameter was measured under physiologic blood pressure. A segment of infrarenal aorta was isolated and a 5 minute perfusion of this segment was performed through an arteriotomy at 100 mmHg with a solution containing type I porcine pancreatic elastase (PPE 0.16 U/mL). All of the experiments were performed with a single PPE preparation derived from the same commercial source and lot.
Following aortic perfusion the arteriotomy was repaired, the laparotomy was closed and the animal was allowed to completely recover before returning to its standard housing.
Following aortic perfusion, animals were placed into one of 5 treatment groups. […] Three different doses of the agent were used, 50 mg/kg/day (n=17), 125 mg/kg/day (n=17), and 250 mg/kg/day (n=18). There were two mice in each group which died following aortic perfusion, and all others were available for analysis. Control animals (n=18) were similarly treated with daily gavage of the Cremophor diluent only. Of these mice, 16 survived the two weeks following aortic perfusion and underwent final aortic measurements and harvest. […] In this group, 4 mice died prior to the two week harvest, and all others were used in the analysis of aneurysm growth.
Two weeks following elastase perfusion, the mice were again anesthetized; the laparotomy incision was reopened and the final aortic diameter was measured in vivo prior to sacrifice. The animals were humanely sacrificed, and circulating blood and the entire perfused segment of aorta was harvested for RNA extraction, protein extraction or histology.

The test system is the same in test [2]. The test is described as follows: Elastase-perfusion mouse model of AAA, aortic histology. Particulars: 50, 125, 250 mg/kg/day. It counts as in vivo. The procedure:
The aortas from several mice from each experimental group were perfusion fixed with 10% neutral-buffered formalin, removed, and placed in additional formalin for a minimum of 24 hours prior to processing for paraffin embedding. Following paraffin embedding, aortic specimens were cut into 5 μm sections and mounted on glass slides. Each specimen was stained with hematoxylin and eosin to evaluate inflammatory cell infiltration and Accustain® Elastic Stain kit to assess the degree of elastin degradation. Photomicrographs of serial sections were obtained using an Olympus BX60 light microscope equipped with CV12 video capture camera.
Representative aortas from each group were fixed in formalin following aortic harvest and processed into paraffin blocks. During harvest only the maximally dilated segment of the aorta was taken, and serial sections of the block were made to assure that the most dilated segment of aorta was imaged. These maximally dilated segments were stained with Hematoxylin and Eosin stains as well as an elastin highlighting stain (Verhoff-Von Giesen [VVG]).

Test [3] deals with T1, mADAM-10 or hADAM-10 (UniProt O14672).
T1 sequence (O14672 1-748): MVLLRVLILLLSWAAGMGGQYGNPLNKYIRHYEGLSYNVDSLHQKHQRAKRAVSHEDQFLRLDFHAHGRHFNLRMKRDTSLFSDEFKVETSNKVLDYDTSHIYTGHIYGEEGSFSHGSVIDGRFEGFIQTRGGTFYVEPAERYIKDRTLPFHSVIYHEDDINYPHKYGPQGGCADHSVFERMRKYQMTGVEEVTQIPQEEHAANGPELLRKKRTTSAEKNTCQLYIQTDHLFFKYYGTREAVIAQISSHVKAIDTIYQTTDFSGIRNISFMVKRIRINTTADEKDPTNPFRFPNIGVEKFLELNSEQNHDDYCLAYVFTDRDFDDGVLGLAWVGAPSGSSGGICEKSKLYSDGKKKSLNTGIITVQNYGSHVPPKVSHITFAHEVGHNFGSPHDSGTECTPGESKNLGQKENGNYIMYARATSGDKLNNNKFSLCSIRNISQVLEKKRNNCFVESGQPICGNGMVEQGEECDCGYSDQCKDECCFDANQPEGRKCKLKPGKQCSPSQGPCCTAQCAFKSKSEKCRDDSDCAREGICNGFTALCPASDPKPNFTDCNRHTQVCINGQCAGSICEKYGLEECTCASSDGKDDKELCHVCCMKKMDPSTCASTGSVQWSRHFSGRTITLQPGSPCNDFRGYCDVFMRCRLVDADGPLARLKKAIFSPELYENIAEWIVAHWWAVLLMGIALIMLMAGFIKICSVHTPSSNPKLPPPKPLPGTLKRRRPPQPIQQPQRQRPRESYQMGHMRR
The experiment in a line: ADAM-10 enzyme assay (fluorogenic peptide cleavage).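 Also: fluorescence from cleavage of a quenched 10-residue DABCYL/EDANS peptide by 5 nM enzyme in HEPES pH 8.0 buffer, 16 hr at room temperature, compounds serially diluted 100 µM to 0.5 nM.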 It counts as biochemical.
Protocol: mADAM-10 or hADAM-10 activity was measured as the ability to cleave a 10-residue peptide (DABCYL-Leu-Leu-Ala-Gln-Lys-*-Leu-Arg-Ser-Ser-Arg-EDANS). […] Enzyme was diluted to a final active concentration of 5 nM in Buffer A (50 mM HEPES 8.0, 100 mM NaCl, 1 mM CaCl2 and 0.01% NP-40). Serial dilutions for compounds were performed ranging from 100 μM to 0.5 nM using a Beckman Biomek 2000 in polypropylene plates (Greiner). […] This reaction was incubated for 16 hr at RT and fluorescence was read using identical conditions.

As for `COCCOC(=O)N1CCN(S(=O)(=O)c2cc(F)c(Oc3ccc(Cl)cc3)c(F)c2)[C@@H](C(=O)NO)C1` [Entry 15], the “mean % ΔAD (increase in aortic diameter at 2 weeks)” value in test [1] (125 mg/kg/day) amounted to 129.3±5.1%; in test [1] (250 mg/kg/day), 119.2±14.1%; in test [1] (lowest dose (50 mg/kg/day)), 140.4±3.2%. Moreover, the “animals which did not develop aneurysms” value in test [1] (250 mg/kg/day, daily gavage) is 12%. For the same compound, the “aortic diameters at harvest compared with control animals” value in test [1] (all doses (50, 125, 250 mg/kg/day)) is recorded as “significantly smaller than control animals”. Moreover, the “animals that developed maximal diameters greater than 100%” value in test [1] (low (50 mg/kg/day) and intermediate (125 mg/kg/day) dose groups) was “All animals”. Besides, in test [2], the “degree of elastin damage and inflammatory cell inflammation versus dose” value was “inversely correlated with the dose of the agent administered”.
`O=C(NO)[C@H]1CN(C(=O)Cc2cccnc2)CCN1S(=O)(=O)c1cc(F)c(Oc2ccc(Cl)cc2)c(F)c1` [Entry 47]: the IC50 in test [3] is less than 50 nM.
Same read-out and setting: under `O=C(NO)[C@H]1CN(S(=O)(=O)c2cccc3cnccc23)CCN1S(=O)(=O)c1cc(F)c(Oc2ccc(Cl)cc2)c(F)c1` [Entry 48] stands less than 50 nM.
`CN(C)c1ccc2c(S(=O)(=O)N3CCN(S(=O)(=O)c4cc(F)c(Oc5ccc(Cl)cc5)c(F)c4)[C@@H](C(=O)NO)C3)cccc2c1` [Entry 49] registered an IC50 in test [3] of 1000 to 20000 nM.
For the compound `CN(C)c1ccc2ccc(S(=O)(=O)N3CCN(S(=O)(=O)c4cc(F)c(Oc5ccc(Cl)cc5)c(F)c4)[C@@H](C(=O)NO)C3)cc2c1` [Entry 50], the IC50 in test [3] was in the range of 1000 to 20000 nM.
`O=C(NO)[C@H]1CN(C(=O)c2ccc(-c3ccccc3)cc2)CCN1S(=O)(=O)c1cc(F)c(Oc2ccc(Cl)cc2)c(F)c1` [Entry 51] had an IC50 in test [3] of 50 to 1000 nM.
On to `O=C(NO)[C@H]1CN(C(=O)Cc2ccncc2)CCN1S(=O)(=O)c1cc(F)c(Oc2ccc(Cl)cc2)c(F)c1` [Entry 52], for which the IC50 in test [3] was less than 50 nM.
In test [3], `O=C(NO)[C@H]1CN(S(=O)(=O)CCN2CCCCC2)CCN1S(=O)(=O)c1cc(F)c(Oc2ccc(Cl)cc2)c(F)c1` [Entry 53] yielded an IC50 of less than 50 nM.
The same measure, in the same setting: under `CN(C)CCS(=O)(=O)N1CCN(S(=O)(=O)c2cc(F)c(Oc3ccc(Cl)cc3)c(F)c2)[C@@H](C(=O)NO)C1` [Entry 54] stands less than 50 nM.
For the compound `CN1CCN(CCS(=O)(=O)N2CCN(S(=O)(=O)c3cc(F)c(Oc4ccc(Cl)cc4)c(F)c3)[C@@H](C(=O)NO)C2)CC1` [Entry 55], in test [3], the IC50 is less than 50 nM.
For `CCOC(=O)N1CCN(CCS(=O)(=O)N2CCN(S(=O)(=O)c3cc(F)c(Oc4ccc(Cl)cc4)c(F)c3)[C@@H](C(=O)NO)C2)CC1` [Entry 56], in test [3], the IC50 is less than 50 nM.
For `O=C(NO)[C@H]1CN(S(=O)(=O)CCN2CCOCC2)CCN1S(=O)(=O)c1cc(F)c(Oc2ccc(Cl)cc2)c(F)c1` [Entry 57], the IC50 in test [3] lay in the range of 50 to 1000 nM.
As for `O=C(NO)[C@H]1CN(C(=O)N2CCOCC2)CCN1S(=O)(=O)c1ccc(-c2cccc(F)c2)nc1` [Entry 58], the IC50 in test [3] was less than 50 nM.
In the case of `O=C(NO)[C@H]1CN(C(=O)c2cccnc2)CCN1S(=O)(=O)c1cc(F)c(Oc2ccc(Cl)cc2)c(F)c1` [Entry 59], the IC50 in test [3] is less than 50 nM.
In test [3], `CN(C)c1cccc2c(S(=O)(=O)N3CCN(S(=O)(=O)c4cc(F)c(Oc5ccc(Cl)cc5)c(F)c4)[C@@H](C(=O)NO)C3)cccc12` [Entry 60] returned an IC50 of 50 to 1000 nM.
In test [3], `O=C(NO)[C@H]1CN(S(=O)(=O)Cc2cc(Cl)cc(Cl)c2)CCN1S(=O)(=O)c1cc(F)c(Oc2ccc(Cl)cc2)c(F)c1` [Entry 61] came in with an IC50 of 50 to 1000 nM.
Consider `C=CCN1CCN(S(=O)(=O)c2cc(F)c(Oc3ccc(Cl)cc3)c(F)c2)[C@@H](C(=O)NO)C1` [Entry 62], for which the IC50 in test [3] was in the range of 50 to 1000 nM.
Still for that read-out and setting: to `O=C(O)CN1CCN(S(=O)(=O)c2cc(F)c(Oc3ccc(Cl)cc3)c(F)c2)[C@@H](C(=O)NO)C1` [Entry 63] belongs 50 to 1000 nM; to `COCCOC(=O)N1CCN(S(=O)(=O)c2ccc(Oc3ccc4c(c3)CCCC4)nc2)[C@@H](C(=O)NO)C1` [Entry 64], less than 50 nM; to `COCCOC(=O)N1CCN(S(=O)(=O)c2ccc(Oc3ccc(F)cc3)nc2)[C@@H](C(=O)NO)C1` [Entry 65], 50 to 1000 nM.
`COCCOC(=O)N1CCN(S(=O)(=O)c2ccc(-c3cccc(F)c3)nc2)[C@@H](C(=O)NO)C1` [Entry 66] registered an IC50 in test [3] of less than 50 nM.
Consider `C[C@H]1c2cccc(O)c2C(=O)C2=C(O)[C@]3(O)C(=O)C(C(N)=O)=C(O)[C@@H](N(C)C)[C@@H]3[C@@H](O)[C@@H]21` [doxycycline, reference compound], for which the “animals not reaching the threshold designated for aneurysms (% ΔAD greater than 100%)” value in test [1] (doxycycline in drinking water, 100 mg/kg/day) worked out at 13%. Moreover, in test [1] (doxycycline in drinking water, 100 mg/kg/day, n=15, Mean±SE), the “mean % ΔAD (percentage increase in aortic diameter at 2 weeks compared to baseline)” value turned out to be 112.2±2.0%.
